The record followed here is ChEMBL document CHEMBL1201862, “PubChem BioAssay data set” (2004).

Among the test systems are SK-MEL-28; CCRF-CEM; SK-MEL-2; OVCAR-4; UACC-257; NCI-H226; K562; DU-145; RXF 393; NCI-H23; SNB-19; SF-268; HCT-15; MDA-MB-231; UACC-62; SW-620; HOP-92; A498; NCI-H460; M14.
Common to all, as to assay: DTP human tumour cell line panel, 48 h

SMILES strings stand for the structures.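 Briefly, cells in 96-well plates were exposed to five compound concentrations for 48 h, and endpoints were estimated by linear interpolation. At the GI50, growth is halved.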 Active and inactive are the calls of the source. No stated cut-off is given here; in the data, active = GI50 up to about 1.1 µM and inactive = higher. Some results are limits rather than exact numbers.

Take `O=C1/C(=C\c2ccc(Cl)cc2Cl)Sc2scc(-c3cccc([N+](=O)[O-])c3)[n+]21`: the GI50 in the test with SK-MEL-28 was 14.6 µM (inactive); with CCRF-CEM, 0.291 µM (active); with SK-MEL-2, 14.2 µM (inactive); in the test on OVCAR-4 it was 12 µM (inactive); with UACC-257, 5.79 µM (inactive); in the test on NCI-H226, 13.5 µM (inactive). The GI50 in the test with K562 was 3.1 µM (inactive); in the test with DU-145 it was 14 µM (inactive); with RXF 393, 6.25 µM (inactive); in the test with NCI-H23, 12.6 µM (inactive); in the test on SNB-19 it was 12.8 µM (inactive); in the test with SF-268 it was 9.1 µM (inactive). Also, the concentration for 50% growth inhibition (GI50) in the test on HCT-15 is 1.81 µM; with MDA-MB-231, 9.14 µM (inactive); in the test with UACC-62, 8.65 µM (inactive); in the test with SW-620, 3.62 µM (inactive); in the test with HOP-92, 5.89 µM (inactive); in the test on A498, 49 µM (inactive). In addition, the GI50 with NCI-H460 is 13.1 µM (inactive); in the test with M14 it was 6.04 µM (inactive).

Consider `CC1C[C@]2(C)C(NCCN)=Nc3ccccc3[C@@H]2N(C)c2ccccc21` (stereo partly drawn), for which the GI50 is 11.2 µM (inactive) in the test on SK-MEL-28; 15.9 µM (inactive) in the test on CCRF-CEM; 17.2 µM (inactive) in the test on SK-MEL-2; 16.3 µM (inactive) in the test on OVCAR-4; 5.04 µM (inactive) with UACC-257; 14.7 µM (inactive) with NCI-H226. The GI50 with K562 was 11.9 µM (inactive); in the test on DU-145, 15.1 µM (inactive); in the test with RXF 393 it was 8.85 µM (inactive); in the test with NCI-H23, 16.7 µM (inactive); with SNB-19 it was 13.4 µM (inactive); in the test on SF-268, 13.9 µM (inactive). Further, the GI50 in the test on HCT-15 is 17.3 µM; in the test with MDA-MB-231 it was 8.57 µM (inactive); with UACC-62 it was 13.6 µM (inactive); with SW-620, 17.5 µM (inactive); with HOP-92, 2.3 µM (inactive); with A498, 16.5 µM (inactive). The GI50 in the test on NCI-H460 is 11.1 µM (inactive); with M14, 1.9 µM (inactive).

As to `NCCCCC(N)C(=O)NCCNc1ccc(NCCNC(=O)C(N)CCCCN)c2c1C(=O)c1ccccc1C2=O` (stereo not drawn), the GI50 in the test with SK-MEL-28 is > 100 µM (inactive); in the test on CCRF-CEM, 31.9 µM (inactive); in the test with SK-MEL-2, > 100 µM (inactive); in the test on OVCAR-4 it was > 100 µM (inactive); with UACC-257 it was > 100 µM (inactive); with NCI-H226, > 21.7 µM (inactive). Further, the GI50 is > 33.4 µM (inactive) with K562; > 100 µM (inactive) in the test with DU-145; 9.86 µM (inactive) in the test on RXF 393; > 65.8 µM (inactive) in the test on NCI-H23; > 36.9 µM (inactive) in the test on SNB-19; > 100 µM (inactive) in the test on SF-268. For the same compound, the GI50 in the test with HCT-15 is more than 83.8 µM; in the test with MDA-MB-231, 34 µM (inactive); in the test on UACC-62, > 100 µM (inactive); in the test on SW-620, 71.8 µM (inactive); in the test on HOP-92, 5.27 µM (inactive); in the test on A498 it was 46.5 µM (inactive). The GI50 with NCI-H460 is 9.06 µM (inactive); with M14 it was > 100 µM (inactive).

Regarding `O=[N+]([O-])/C(C(Cl)=C(Cl)Cl)=C(\SCc1ccccc1)N1CCCCC1`, the GI50 was 37.2 µM (inactive) in the test with SK-MEL-28; 8.34 µM (inactive) with CCRF-CEM; 21.5 µM (inactive) in the test on SK-MEL-2; 15 µM (inactive) with OVCAR-4; 28.4 µM (inactive) in the test with UACC-257; 19.7 µM (inactive) with NCI-H226. Also, the GI50 in the test with K562 is 27.8 µM (inactive); in the test with DU-145, 41.3 µM (inactive); with RXF 393, 19.7 µM (inactive); in the test with NCI-H23, 18 µM (inactive); with SNB-19, 56.2 µM (inactive); in the test on SF-268, 23.7 µM (inactive). The GI50 in the test with HCT-15 was 19.7 µM; in the test on MDA-MB-231, 13.3 µM (inactive); with UACC-62, 17.9 µM (inactive); in the test with HOP-92, 0.0879 µM (active); with A498, 31.9 µM (inactive); in the test on NCI-H460, 23.8 µM (inactive). For the same compound, the GI50 with M14 is 19.3 µM (inactive).

Turning to `CC(=O)O[C@H]1C(=O)[C@@]2(C)[C@H]([C@H](OC(=O)c3ccccc3)[C@]3(O)C[C@H](OC(=O)[C@H](O)[C@@H](NC(=O)c4ccccc4)c4ccccc4C)C(C)=C1C3(C)C)[C@]1(OC(C)=O)CO[C@@H]1C[C@@H]2O`, the GI50 was 1.55 µM (inactive) in the test with SK-MEL-28; 0.376 µM (active) in the test on CCRF-CEM; 2.34 µM (inactive) in the test with SK-MEL-2; 3.78 µM (inactive) with OVCAR-4; 0.718 µM (active) in the test on UACC-257; 1.71 µM (inactive) in the test with NCI-H226. The GI50 in the test with K562 is 0.211 µM (active); in the test on DU-145 it was 1.85 µM (inactive); with RXF 393, 0.525 µM (active); in the test on NCI-H23, 0.948 µM (active); in the test with SNB-19 it was 1.27 µM (inactive); in the test with SF-268, 1.2 µM (inactive). The GI50 in the test with HCT-15 is 6.38 µM; in the test on MDA-MB-231 it was 3.18 µM (inactive); with UACC-62, 1.22 µM (inactive); in the test on SW-620 it was 0.351 µM (active); in the test with HOP-92, 2.13 µM (inactive); with A498, 0.444 µM (active). The GI50 was 0.811 µM (active) with NCI-H460 and 0.55 µM (active) in the test on M14.

With `OC1c2ccccc2CCC1CN1CCN(CCOC(c2ccc(F)cc2)c2ccc(F)cc2)CC1` (stereo not drawn), the GI50 in the test on SK-MEL-28 is 13.3 µM (inactive); in the test on CCRF-CEM, 0.145 µM (active); in the test with SK-MEL-2 it was 16.6 µM (inactive); in the test on OVCAR-4, 50.5 µM (inactive); in the test on UACC-257 it was 14.7 µM (inactive); in the test with NCI-H226 it was 13.6 µM (inactive). Also, the GI50 in the test on K562 was 2.94 µM (inactive); in the test on DU-145 it was 21 µM (inactive); with RXF 393, 6.18 µM (inactive); with NCI-H23, 14.5 µM (inactive); in the test with SNB-19, 31.6 µM (inactive); in the test with SF-268 it was 16.6 µM (inactive). Further, the GI50 in the test with HCT-15 is 6.05 µM; in the test on MDA-MB-231, 13.8 µM (inactive); with UACC-62, 13.8 µM (inactive); with SW-620, 16.2 µM (inactive); in the test with HOP-92, 9.16 µM (inactive); with A498 it was 12.3 µM (inactive). The GI50 was 15.4 µM (inactive) in the test with NCI-H460 and 10.9 µM (inactive) with M14.

In the case of `COC(=O)c1c(O)ccc2c1c1cc3ccccc3c(O)c1n2CCc1ccc(OC)c(OC)c1`, the GI50 in the test with SK-MEL-28 was 17.4 µM (inactive); in the test with CCRF-CEM, 30.1 µM (inactive); with SK-MEL-2 it was 58.2 µM (inactive); in the test with OVCAR-4 it was 42.1 µM (inactive); with UACC-257, > 100 µM (inactive); in the test on NCI-H226, > 100 µM (inactive). The GI50 is 87.1 µM (inactive) in the test on K562; 96.6 µM (inactive) with DU-145; > 100 µM (inactive) with RXF 393; 93.1 µM (inactive) in the test with NCI-H23; > 100 µM (inactive) in the test with SNB-19; 76.4 µM (inactive) in the test with SF-268. The GI50 in the test on HCT-15 is 61.5 µM; in the test with MDA-MB-231, > 100 µM (inactive); with UACC-62, > 100 µM (inactive); in the test with HOP-92, 31.3 µM (inactive); in the test with A498, > 100 µM (inactive); in the test on NCI-H460, 20.9 µM (inactive). The GI50 with M14 is 86.7 µM (inactive).

In the case of `CC1(CCCO)CCCCCCCCCC(C)(CCCO)C1=O` (stereo not drawn), the GI50 in the test with SK-MEL-28 is > 100 µM (inactive); with CCRF-CEM, 55 µM (inactive); in the test with SK-MEL-2, 97.5 µM (inactive); with OVCAR-4, > 100 µM (inactive); in the test with UACC-257, > 100 µM (inactive); with NCI-H226, > 100 µM (inactive). Also, the GI50 in the test on K562, in the test with DU-145, in the test on RXF 393, in the test with NCI-H23, in the test on SNB-19 and in the test on SF-268 was > 100 µM (inactive) each time. The GI50 with HCT-15 was more than 100 µM; with MDA-MB-231 it was > 100 µM (inactive); in the test with UACC-62, > 100 µM (inactive); in the test on SW-620, > 100 µM (inactive); with HOP-92, > 100 µM (inactive); with A498, > 100 µM (inactive). The GI50 in the test on NCI-H460 and in the test on M14 was > 100 µM (inactive) in each case.

For `Cc1c2cc[n+](C)cc2c(C)c2c1oc1ccccc12`, the GI50 in the test with SK-MEL-28 is 6.85 µM (inactive); with CCRF-CEM, 3.18 µM (inactive); in the test with SK-MEL-2 it was 4.13 µM (inactive); in the test on OVCAR-4, 7.14 µM (inactive); in the test with UACC-257, 4.29 µM (inactive); in the test on NCI-H226 it was 2.19 µM (inactive). Further, the GI50 with K562 was 6.38 µM (inactive); in the test on DU-145 it was 15.9 µM (inactive); in the test on RXF 393, 15.2 µM (inactive); with NCI-H23, 2.24 µM (inactive); with SNB-19, 0.893 µM (active); with SF-268 it was 0.406 µM (active). Also, the GI50 was more than 87.3 µM in the test with HCT-15; 12.9 µM (inactive) with MDA-MB-231; 5.62 µM (inactive) in the test with UACC-62; 3 µM (inactive) in the test on SW-620; 6.5 µM (inactive) in the test on HOP-92; 42.9 µM (inactive) in the test with A498. The figures for the GI50 in the test with NCI-H460 and in the test with M14 were 3.24 µM (inactive) and 14.6 µM (inactive), respectively.

For the compound `CCOP(=O)(OCC)/C(=C/c1cccs1)CC(C)=O`, the GI50 with SK-MEL-28, in the test on CCRF-CEM, in the test on SK-MEL-2, in the test with OVCAR-4, in the test with UACC-257 and in the test on NCI-H226 was > 100 µM (inactive) in each case. Moreover, the GI50 in the test with K562, with DU-145, in the test with RXF 393, with NCI-H23, in the test on SNB-19 and in the test with SF-268 was > 100 µM (inactive) throughout. For the same compound, the GI50 was more than 100 µM with HCT-15; > 100 µM (inactive) with MDA-MB-231; > 100 µM (inactive) with UACC-62; > 100 µM (inactive) in the test with SW-620; > 100 µM (inactive) in the test on HOP-92; 75.3 µM (inactive) in the test with A498. The GI50 in the test on NCI-H460 and in the test on M14 was > 100 µM (inactive) in each case.
